Experiment [1] concerns Oryctolagus cuniculus. The experiment is described as follows: Hypotensive effect in normotensive chinchilla rabbits assessed as reduction in intraocular pressure administered once to both eyes and measured every hour for 6 hrs by automatic veterinary tonometer based assay relative to control. It counts as functional. The arrangement: concentration or dose not given beside the values.

Experiment [2] concerns Oryctolagus cuniculus. The experiment can be described thus: Hypotensive effect in normotensive chinchilla rabbits assessed as maximal effective time administered once to both eyes and measured every hour for 6 hrs by automatic veterinary tonometer based assay. It counts as functional.
Experiment [3] has as its system Oryctolagus cuniculus. The experiment is described as follows: Hypotensive effect in New Zealand white rabbits assessed as reduction in intraocular pressure at 100 uM administered topically in presence of reserpine and measured every hour for 8 hrs relative to control. Also on record: scale not given: the % may be the effect or the level left. It counts as functional.

The subject of experiment [4] is Oryctolagus cuniculus. The experiment is described as follows: Hypotensive effect in New Zealand white rabbits assessed as reduction in intraocular pressure at 100 uM administered topically in presence of 6-hydroxydopamine and measured every hour for 8 hrs relative to control. It counts as functional. The arrangement: scale not given: the % may be the effect or the level left.

In experiment [5] the test system is Oryctolagus cuniculus. The experiment is described as follows: Hypotensive effect in normotensive chinchilla rabbits assessed as reduction in intraocular pressure administered once to both eyes and measured after 6 hrs by automatic veterinary tonometer based assay relative to control. It counts as functional. Also on record: scale not given: the % may be the effect or the level left.

The test system of experiment [6] is Oryctolagus cuniculus. The experiment can be described thus: Hypotensive effect in normotensive chinchilla rabbits assessed as reduction in intraocular pressure administered once to both eyes and measured after 6 hrs by automatic veterinary tonometer based assay. It counts as functional, organism-based.

Calls of active or inactive are those of the source. No cut-off for these calls is given here.

Take `CCOC(=O)Nc1ccc2c(c1)C(CC#N)C(=O)N2` (stereo unspecified): the Activity in experiment [1] came out at 8%. Moreover, the Time in experiment [2] turned out to be 5 h.

For `COC(=O)Nc1ccc2[nH]cc(CCNC(C)=O)c2c1`, the Activity in experiment [3] and in experiment [4] was 5% in each case.

Turning to `COC(=O)Nc1ccc2c(c1)C(CC#N)C(=O)N2` (stereo unspecified), the Activity in experiment [1] is on record as 24%; in experiment [5], 17%. Moreover, the Time in experiment [2] stood at 2 h.

`CC(C)(C)NC[C@H](O)COc1nsnc1N1CCOCC1` [TIMOLOL]: the Activity in experiment [1] came to 18%. For the same compound, the result in experiment [6] was inactive. Also, the Time in experiment [2] is 3 h.

Regarding `COC(=O)Nc1ccc2c(c1)C(CC(=O)O)C(=O)N2` (stereo unspecified), the Activity in experiment [1] was determined as 12%. Also, the Time in experiment [2] is 3 h.

In the case of `COc1ccc2[nH]cc(CCNC(C)=O)c2c1` [MELATONIN], the Activity in experiment [1] was 12%; in experiment [3], 5%; in experiment [4] it was 5%. The Time in experiment [2] amounted to 3 h.

These data come from ChEMBL document CHEMBL5247666, “The rational design of novel 5-amino-2-oxindole derivatives with antiglaucomic activity” (2023).
